Assay results taken from patent US8178506B2, “Oligomeric compounds and compositions for use in modulation of small non-coding RNAs” (Regulus Therapeutics Inc., priority 2003, dated 2012).
In the oligonucleotide strings, read from the 5' end, every base follows the letter of its sugar. An asterisk marks phosphorothioate; unmarked linkages are phosphodiester. Other units and linkages are bracketed, terminal groups are in braces. A string of capitals states the bases alone. e = 2'-O-(2-methoxyethyl) (MOE); [5mC] = 5-methylcytosine; d = 2'-deoxy (DNA)

Legend:
Type in all cases: cell-based, human
adipocytes = assay: Triglyceride accumulation assay in adipocytes
aP2 = aP2 mRNA expression in adipocytes (real-time PCR); conditions: for aP2 mRNA: differentiating adipocytes transfected with oligomeric compound, Table 75
HSL = HSL mRNA expression in adipocytes (real-time PCR)
Glut4 = Glut4 mRNA expression in adipocytes (real-time PCR)
PPARγ = PPARγ mRNA expression in adipocytes (real-time PCR)
[1] = differentiating adipocytes transfected with oligomeric compound, Table 75
[2] = Table 18, differentiating adipocytes, control = treatment with ISIS 342673
[3] = 300 nM, differentiating adipocytes day 10 post-induction, 24 hours after treatment
[4] = Table 17, differentiating adipocytes, control = treatment with ISIS 342673

Substance	TG (triglyceride accumulation) (adipocytes; [1])	aP2 mRNA (aP2)	HSL mRNA (HSL; [1])	GLUT4 mRNA (Glut4; [1])	PPAR gamma mRNA (PPARγ; [1])	further results
346907 (AUGUAUGUGGGACGGUAAACCA; all 2'-MOE, all phosphorothioate, methylation of C and T or U not given here) [compound 346907]	47 percentage of untreated control (UTC)	50 percentage of untreated control (UTC)	36 percentage of untreated control (UTC)	37 percentage of untreated control (UTC)	51 percentage of untreated control (UTC)	–
346910 (GCAAUCAGCUAACUACACUGCCU; all 2'-MOE, all phosphorothioate, methylation of C and T or U not given here) [compound 346910]	80 percentage of untreated control (UTC)	78 percentage of untreated control (UTC)	69 percentage of untreated control (UTC)	63 percentage of untreated control (UTC)	83 percentage of untreated control (UTC)	–
341791 (antisense GCUUCCAGUCGAGGAUGUUUACA; all 2'-MOE, all phosphorothioate, methylation of C and T or U not given here) [compound 341791]	50 percentage of untreated control (UTC)	80 percentage of untreated control (UTC)	72 percentage of untreated control (UTC)	47 percentage of untreated control (UTC)	75 percentage of untreated control (UTC)	–
328099 (antisense eA*eA*eG*eA*eA*e[5mC]*eA*eT*eT*eA*eA*eG*e[5mC]*eA*eT*e[5mC]*eT*eG*eA*e[5mC]*eA) [compound 328099]	57 percentage of untreated control (UTC)	80 percentage of untreated control (UTC)	74 percentage of untreated control (UTC)	61 percentage of untreated control (UTC)	72 percentage of untreated control (UTC)	TG (triglyceride accumulation) (adipocytes; [2]): 93.9 percentage of control; AP2 mRNA (aP2; [2]): 85.9 percentage of control; HSL mRNA (HSL; [2]): 88.4 percentage of control; GLUT4 mRNA (Glut4; [2]): 86.8 percentage of control; PPAR gamma mRNA (PPARγ; [2]): 81.9 percentage of control
346687 (AGCAAGCCCAGACCGCAAAAAG; all 2'-MOE, all phosphorothioate, methylation of C not given here) [compound 346687]	55 percentage of untreated control (UTC)	56 percentage of untreated control (UTC)	53 percentage of untreated control (UTC)	35 percentage of untreated control (UTC)	60 percentage of untreated control (UTC)	–
346694 (AACCCAUGGAAUUCAGUUCUCA; all 2'-MOE, all phosphorothioate, methylation of C and T or U not given here) [compound 346694]	31 percentage of untreated control (UTC)	41 percentage of untreated control (UTC)	18 percentage of untreated control (UTC)	5 percentage of untreated control (UTC)	32 percentage of untreated control (UTC)	–
105990 (antisense AGCAAAAGATCAATCCGTTA; sugars from the 5' end e5 d10 e5, backbone and methylation of C not given here) [compound 105990]	–	–	–	–	–	Triglycerides (adipocytes; [3]): 16.6 % UTC; TG (triglyceride accumulation) (adipocytes; [4]): 28.2 percentage of control; TG (triglyceride accumulation) (adipocytes; [2]): 32.8 percentage of control; AP2 mRNA (aP2; [3]): 17.9 % UTC; AP2 mRNA (aP2; [4]): 51.6 percentage of control; AP2 mRNA (aP2; [2]): 49.8 percentage of control; HSL mRNA (HSL; [3]): 7.4 % UTC; HSL mRNA (HSL; [4]): 49.2 percentage of control; HSL mRNA (HSL; [2]): 52.0 percentage of control; GLUT4 mRNA (Glut4; [3]): 11.8 % UTC; GLUT4 mRNA (Glut4; [4]): 59.5 percentage of control; GLUT4 mRNA (Glut4; [2]): 68.1 percentage of control; PPAR-gamma mRNA (PPARγ; [3]): 43.9 % UTC; PPAR gamma mRNA (PPARγ; [4]): 51.8 percentage of control; PPAR gamma mRNA (PPARγ; [2]): 60.1 percentage of control
346693 (CCCUCUGGUCAACCAGUCACA; all 2'-MOE, all phosphorothioate, methylation of C and T or U not given here) [compound 346693]	69 percentage of untreated control (UTC)	77 percentage of untreated control (UTC)	66 percentage of untreated control (UTC)	65 percentage of untreated control (UTC)	81 percentage of untreated control (UTC)	–
344275 (antisense UCUAGUGGUCCUAAACAUUUCA; all 2'-MOE, all phosphorothioate, methylation of C and T or U not given here) [compound 344275]	36 percentage of untreated control (UTC)	36 percentage of untreated control (UTC)	39 percentage of untreated control (UTC)	21 percentage of untreated control (UTC)	46 percentage of untreated control (UTC)	–
346917 (CAGCUAUGCCAGCAUCUUGCCU; all 2'-MOE, all phosphorothioate, methylation of C and T or U not given here) [compound 346917]	39 percentage of untreated control (UTC)	33 percentage of untreated control (UTC)	27 percentage of untreated control (UTC)	20 percentage of untreated control (UTC)	31 percentage of untreated control (UTC)	–
328127 (antisense eA*eA*e[5mC]*eG*eA*eT*eA*eA*eA*eA*e[5mC]*eA*eT*eA*e[5mC]*eT*eT*eG*eT*e[5mC]*eA) [compound 328127]	81 percentage of untreated control (UTC)	95 percentage of untreated control (UTC)	93 percentage of untreated control (UTC)	75 percentage of untreated control (UTC)	85 percentage of untreated control (UTC)	TG (triglyceride accumulation) (adipocytes; [4]): 74.5 percentage of control; AP2 mRNA (aP2; [4]): 86.9 percentage of control; HSL mRNA (HSL; [4]): 89.7 percentage of control; GLUT4 mRNA (Glut4; [4]): 80.8 percentage of control; PPAR gamma mRNA (PPARγ; [4]): 77.6 percentage of control
